BindingDB's records for doi:10.1016/j.bioorg.2017.03.015 (Silesian University of Technology, 2017)

Target: T1, Beta-1,4-galactosyltransferase 1 (Bos taurus, UniProt P08037)
T1 sequence (P08037 whole entry): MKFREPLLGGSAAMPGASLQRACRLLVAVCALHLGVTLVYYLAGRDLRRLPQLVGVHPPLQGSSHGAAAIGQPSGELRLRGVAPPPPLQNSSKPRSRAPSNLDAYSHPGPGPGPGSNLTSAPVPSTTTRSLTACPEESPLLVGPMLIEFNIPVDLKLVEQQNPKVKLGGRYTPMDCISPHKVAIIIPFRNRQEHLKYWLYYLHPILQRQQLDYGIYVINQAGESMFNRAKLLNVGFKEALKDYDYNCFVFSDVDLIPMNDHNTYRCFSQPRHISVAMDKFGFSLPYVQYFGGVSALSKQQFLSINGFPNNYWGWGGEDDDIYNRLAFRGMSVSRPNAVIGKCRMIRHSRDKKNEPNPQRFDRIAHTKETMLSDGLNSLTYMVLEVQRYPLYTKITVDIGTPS
Assay: β-1,4-Galactosyltransferase I Assay
Conditions: pH 5.4; 30 °C
Experimental: β4GalT activity was assayed using UDP-Gal as glycosyl donor and (6-esculetinyl) β-D-glucopyranoside (esculine) as glycosyl acceptor. Assays were performed in a total volume of 200 μL. The reaction mixtures contained reagents in the following final concentrations: 50 mM Hepes buffer (pH 5.4), 10 mM MnCl2, 2.0 mg/mL BSA, 200 μM esculine, 40 μM UDP-Gal, 10 μL MeOH and potential inhibitors 1-6 at 0.8 mM concentration. The enzymatic reactions were initiated by the addition of 1 mU β4GalT and incubated at 30 °C for 60 min. Inactivation was quickly done by placing of the reaction solutions for 3 min in a thermo block set to 90 °C. Thesolutions were diluted with water (300 μL) and centrifuged for 20 min, filtered through M.E. Cellulose filter (0.2 μm × 13 mm) and the filtrate was injected into RP-HPLC system.

## O=c1ccn([C@@H]2O[C@H](Cn3cc(CO[C@@H]4OC(CO)[C@@H](O)C(O)C4O)nn3)C(O)C2O)c(=O)[nH]1 (stereo partly drawn) [5'-deoxy-5'-[4-(β-D-glucopyranosyloxymethyl)-1,2-3-triazol-1-yl]uridine (5)]
  IC50: 720 µM
